Source: US20240293466A1, “DIFFERENTIAL CXCR4 […] HEMATOPOIETIC PROGENITOR CELLS VERSUS STEM CELLS DIRECTS HOMING AND LONG-TERM ENGRAFTMENT” (priority 2021, published 2024)

What was measured:
CXCR4 = CXCR4 (Homo sapiens, UniProt P61073)
Protocol: 6- to 14-week-old NOD.Cg-Prkdc^scid Il2rg^tm1Wjl/SzJ (NSG) mice were used in UCB- and MPB-derived HSPC transplant experiments. Mice were irradiated with 280 cGy prior to transplant. For homing experiments, each mouse received 3×10^6 CD34+cells and 16-22 hours post-injection, the mice were sacrificed and bone marrow from the femurs was analyzed for human cell content. For long-term engraftment experiments, mice received limiting dilution CD34+or CD34+CD38−HSPC doses. IV injections were done by injecting HSPC in 200-250 μL via tail vein and IBM injections were done by injecting HSPC in 10 μL into the femur.
The cells were washed with PBS and transplanted into NSG mice for homing experiments.
CD34+cells were transduced with a blue fluorescent protein (BFP) encoding LV vector and the CD34+CD38+BFP+HPC were sorted by flow cytometry.

VLA-4 = molecular target: T1, VLA-4 (Homo sapiens, UniProt P05556+P13612); experiment: Homing of CD34+CD38+ HPC into bone marrow of NSG mice after VLA-4 blockade; assay type: in vivo; settings: IV or IBM delivery; HPC pre-treated with 1 μM BIO5192
T1 construct: endogenous in cells; host or cells: human G-CSF mobilized peripheral blood CD34+CD38+BFP+ HPC, sorted after transduction with a BFP-only LV vector
Protocol: (§1) Mice were irradiated with 280 cGy prior to transplant.
CD34+HSPC were resuspended in PBS containing 1 μM BIO5192 (Tocris, 5051) and incubated on ice for 20 minutes.

[1] = tested on: MPB CD34+ HSPC / CD34+CD38- cells; experiment: Gene transfer efficiency of LV vectors in HSPC; assay type: cell-based, human
Protocol: UCB and G-CSF MPB were obtained and CD34+HSPC were isolated by magnetic selection with Indirect CD34 Microbead kit, human (Miltenyi, 130-046-701). CD34+purity was >95% as confirmed by flow cytometry. CD34+CD38−cells were isolated from G-CSF MPB by magnetic selection with CD34+CD38−Isolation Kit, human (Miltenyi, 130-114-822) and cryopreserved. Thawed CD34+ or CD34+CD38−cells were cultured in X-VIVO 10 (Lonza BE02-055Q) or SCGM (CellGenix 20806-0500) supplemented with 2% human serum albumin, 100 ng/mL TPO, 300 ng/mL SCF, and 300 ng/mL FLT3-L (all cytokines purchased from Peprotech) at a cell density of 2-5×10^6 CD34+cells/mL. Media was supplemented with Birb 796 (600 nM) (Selleckchem) throughout culture and Prostaglandin E2 (10 μM) (Cayman) at plating, transduction, and 1 hour before harvest. Cells were transduced with a lentiviral vector in culture for 36-42 hours where indicated. CD34+HSPC were transduced at a final concentration of 5×10^7-1×10^8 IU/mL. Following culture, CD34+HSPC were harvested and washed with PBS, resuspended in PBS, and used in in vivo or in vitro experiments, as described below.

[2] = tested on: CD34+CD38- HSC-enriched cells; experiment: Long-term (24 week) engraftment of transduced CD34+CD38- cells in NSG mice; assay type: in vivo, human; settings: 24 weeks
Description: as §1
At 12 weeks following transplant, bone marrow was harvested via aspirate of the femur for in vivo engraftment analysis. For animals that received IBM injections into one femur, the non-injected alternate femur was aspirated. For 24 week and homing analysis, mice were sacrificed, and bone marrow was harvested from both the rear and forelimbs. Cells were stained fresh with the following antibodies: PerCP anti-human CD45 (BioLegend 304026), Anti-human CD33 PE-Cy7 (eBioscience 25-0338-42), APC-Cy7 Mouse Anti-Human CD19 (BD 557791), Anti-Human CD3 PE (BD BioSciences 555340), and APC Mouse Anti-Human CD34 (BD BioScience 555824). Red bloods cells were lysed after staining using red blood cell lysis buffer.
Next, CD34+CD38−HSC-enriched cells were sorted, transduced with GFP LV^CXCR4 vector or GFP LV control vector, and transplanted them IV or IBM in two limiting dilutions to irradiated NSG mice to assess engraftment of the long-term repopulating HSC at 6 months post-transplant (FIG. 5F-5G). […] The slightly higher engraftment of untransduced IV transplanted cells (FIGS. 5F and 10C) was likely because LV preparations often contain some defective viral particles, which, like VLP, would deliver CXCR4 protein but not result in an effective transduction (transgene transfer or GFP+cells). […]

[3] = tested on: CD34+CD38- HSC-enriched cells; experiment: Homing of CD34+CD38-BFP+ cells mixed with CD34+CD38+ HPC in NSG mice; assay type: in vivo, human; settings: 20-22 hours
Description: as §1
An alternative explanation for the competitive homing and engraftment advantage of HPC could be that they comprise the vast majority of CD34+HSPC (98-99%), while HSC are a small minority. It was experimentally conferred the HSC-enriched CD34+CD38− population with slightly higher CXCR4 expression than the CD34+CD38+HPC and assessed homing (FIG. 3D). The CD34+HSPC were transduced with a BFP-CXCR4-encoding LV vector or a BFP-encoding LV control vector and CD34+CD38−BFP+HSC-enriched cells were sorted along with untransduced CD34+CD38+BFP−HPC. CXCR4 expression on these populations was assessed before transplant. In control cells, CXCR4 expression on the more primitive CD34+CD38−cells was much lower (MFI 16,930) than on CD34+CD38+HPC (MFI 35,098) (FIG. 3E), consistent with prior data (see, e.g., FIG. 2D). […] The sorted BFP-HPC population was then mixed with the BFP+CD34+CD38−CXCR4^high HSC-enriched cell population in ratios seen in CD34+HSPC prior to sorting, and transplanted them either IV or IBM, and homing of the CD34+CD38−BFP+CXCR4^high HSC-enriched cells was assessed. Control CD34+CD38−BFP+cells were also mixed with CD34+CD38+BFP−HPC and transplanted IV or IBM (FIG. 3D) and their homing into bone marrow was assessed. […]

[4] = tested on: CD34+CD38- HSC-enriched cells; experiment: CXCR4 expression (flow cytometry MFI) on sorted transduced cells at time of transplant; assay type: cell-based, human; settings: CD34+CD38-BFP+ cells, 72 hours after gene transfer
Description: All LV vectors were packaged using the Gag-Pol, Rev and VSV-G envelope plasmids. All vectors were under the control of the MNDU3 promoter. The GFP LV construct was pRRL.SIN.cPPT.MNDU3.eGFP.WPRE. The BFP LV construct was designed by replacing the GFP cDNA in pRRL.SIN.cPPT.MNDU3.eGFP.WPRE.with mTag2BFP. The BFP-CXCR4 LV was pRRL.SIN.cPPT.MNDU3.mTag2BFP-CXCR4.WPRE. All lentiviral vectors were packaged in HEK 293T (ATCC) cells and vector titers determined in the murine erythroleukemia (MEL) (ATCC) cells as previously described (Perumbeti et al., Blood, 2009; Urbinati et al., Mol Ther, 2009; Arumugam et al., Mol Ther, 2009). […]
An alternative explanation for the competitive homing and engraftment advantage of HPC could be that they comprise the vast majority of CD34+HSPC (98-99%), while HSC are a small minority. It was experimentally conferred the HSC-enriched CD34+CD38− population with slightly higher CXCR4 expression than the CD34+CD38+HPC and assessed homing (FIG. 3D). […] CXCR4 expression on these populations was assessed before transplant. […] The sorted BFP-HPC population was then mixed with the BFP+CD34+CD38−CXCR4^high HSC-enriched cell population in ratios seen in CD34+HSPC prior to sorting, and transplanted them either IV or IBM, and homing of the CD34+CD38−BFP+CXCR4^high HSC-enriched cells was assessed. […]

CXCR4, sequence (P61073 whole entry): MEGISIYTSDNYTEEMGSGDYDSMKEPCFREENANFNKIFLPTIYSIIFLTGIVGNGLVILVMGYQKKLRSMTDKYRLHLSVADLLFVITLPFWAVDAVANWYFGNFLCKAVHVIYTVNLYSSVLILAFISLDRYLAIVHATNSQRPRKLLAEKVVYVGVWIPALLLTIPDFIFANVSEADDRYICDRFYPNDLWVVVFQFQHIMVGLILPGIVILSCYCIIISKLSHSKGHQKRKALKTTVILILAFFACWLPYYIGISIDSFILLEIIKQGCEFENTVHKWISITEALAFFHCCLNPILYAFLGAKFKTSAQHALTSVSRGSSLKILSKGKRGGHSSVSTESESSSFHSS
T1 sequence (P13612 34-1032): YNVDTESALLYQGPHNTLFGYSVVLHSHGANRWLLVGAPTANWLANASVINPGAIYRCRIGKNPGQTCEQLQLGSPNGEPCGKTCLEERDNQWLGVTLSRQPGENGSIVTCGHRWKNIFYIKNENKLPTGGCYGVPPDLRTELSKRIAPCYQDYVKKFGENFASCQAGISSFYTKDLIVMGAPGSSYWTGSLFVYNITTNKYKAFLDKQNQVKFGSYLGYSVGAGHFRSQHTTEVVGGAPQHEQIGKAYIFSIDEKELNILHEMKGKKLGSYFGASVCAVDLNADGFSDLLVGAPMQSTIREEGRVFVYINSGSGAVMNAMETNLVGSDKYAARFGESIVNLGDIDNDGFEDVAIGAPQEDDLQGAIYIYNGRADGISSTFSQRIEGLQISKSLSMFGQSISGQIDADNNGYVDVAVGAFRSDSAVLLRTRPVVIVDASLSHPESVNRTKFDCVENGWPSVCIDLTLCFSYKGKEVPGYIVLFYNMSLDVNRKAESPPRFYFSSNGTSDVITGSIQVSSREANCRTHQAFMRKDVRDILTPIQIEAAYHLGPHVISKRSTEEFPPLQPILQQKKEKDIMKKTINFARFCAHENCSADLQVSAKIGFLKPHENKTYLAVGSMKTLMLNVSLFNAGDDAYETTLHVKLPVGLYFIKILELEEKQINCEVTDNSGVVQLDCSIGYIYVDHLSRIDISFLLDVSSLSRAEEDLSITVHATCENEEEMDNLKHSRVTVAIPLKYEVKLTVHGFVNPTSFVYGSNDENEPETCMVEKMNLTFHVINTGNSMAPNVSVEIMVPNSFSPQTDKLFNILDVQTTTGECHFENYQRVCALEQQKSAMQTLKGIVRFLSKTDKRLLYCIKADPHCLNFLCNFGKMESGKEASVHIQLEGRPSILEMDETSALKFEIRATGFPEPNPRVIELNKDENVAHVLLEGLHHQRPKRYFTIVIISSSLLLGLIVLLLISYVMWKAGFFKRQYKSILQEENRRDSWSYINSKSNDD
T1 sequence (P05556 21-798): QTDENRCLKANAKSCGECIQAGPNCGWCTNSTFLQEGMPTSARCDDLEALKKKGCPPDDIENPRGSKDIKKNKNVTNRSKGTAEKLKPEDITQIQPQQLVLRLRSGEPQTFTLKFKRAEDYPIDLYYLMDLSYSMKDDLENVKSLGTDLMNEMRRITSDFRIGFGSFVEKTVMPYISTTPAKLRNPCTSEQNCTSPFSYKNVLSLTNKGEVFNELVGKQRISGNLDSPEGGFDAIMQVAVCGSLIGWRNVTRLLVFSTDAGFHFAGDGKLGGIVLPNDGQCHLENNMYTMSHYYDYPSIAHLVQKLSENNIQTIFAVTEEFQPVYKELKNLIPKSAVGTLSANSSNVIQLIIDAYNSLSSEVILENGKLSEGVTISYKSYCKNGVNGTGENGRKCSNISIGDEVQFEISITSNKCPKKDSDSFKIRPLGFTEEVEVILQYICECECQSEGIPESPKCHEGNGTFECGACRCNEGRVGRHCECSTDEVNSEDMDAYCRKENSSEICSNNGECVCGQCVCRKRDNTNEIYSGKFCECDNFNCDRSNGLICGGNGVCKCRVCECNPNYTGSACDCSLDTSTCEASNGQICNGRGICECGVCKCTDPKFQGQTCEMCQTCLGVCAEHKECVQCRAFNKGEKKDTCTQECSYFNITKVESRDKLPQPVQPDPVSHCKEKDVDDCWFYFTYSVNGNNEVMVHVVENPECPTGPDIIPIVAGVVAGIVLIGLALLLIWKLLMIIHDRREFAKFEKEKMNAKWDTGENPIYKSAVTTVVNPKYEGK

## c1cc(CN2CCCNCCNCCCNCC2)ccc1CN1CCCNCCNCCCNCC1 [AMD3100]
CXCR4; IBM delivery, CD34+CD38+BFP+ HPC pre-treated with 100 ug/mL AMD3100, reduced to homing levels of IV delivery or nonIF
  human HPC content in the injected femur (IF): significantly reduced
CXCR4; IV delivery, HPC pre-treated with AMD3100
  homing of IV injected cells: note blocked

## Cc1ccccc1NC(=O)Nc1ccc(CC(=O)N(C)[C@@H](CC(C)C)C(=O)NCC[C@H](NC(=O)[C@@H]2CCCN2S(=O)(=O)c2cc(Cl)cc(Cl)c2)C(=O)O)cc1 [BIO5192]
VLA-4
  CD34+38+ HPC homing pattern vs corresponding controls: did not alter

## pRRL.SIN.cPPT.MNDU3.eGFP.WPRE [GFP LV]
[1]; CD34+CD38- HSC-enriched cells, experiment of FIG. 4
  gene transfer efficiency: 69%
[1]; CD34+CD38- cells, homing/engraftment experiment of FIGS. 5 and 10
  gene transfer: 60%
[1]; MPB CD34+HSPC, experiment of FIG. 1
  gene transfer: 63-66%
[2]
  lineage repopulation: full multilineage repopulation

## pRRL.SIN.cPPT.MNDU3.mTag2BFP-CXCR4.WPRE [BFP-CXCR4 LV vector]
[3]; IV administration, mixed with majority of CD34+38+ HPC
  homing of CD34+CD38- cells to bone marrow: higher homing levels
[3]; direct IBM transplantation, mixed with majority of HPC
  homing of CD34+CD38- cells to bone marrow: remarkably improved homing advantage
[4]
  CXCR4 expression MFI: 37,453
